From US20210070748A1, “INHIBITORS OF BRUTONS TYROSINE KINASE” (Pharmacyclics LLC, priority 2015, published 2021)
Where a name gives a salt, the structure may show the parent alone.

Columns and labels:
Assay type in all cases: biochemical
[1] = biological target: LCK (Homo sapiens, UniProt P06239); assay: Inhibition of a panel of kinases, in vitro HotSpot kinase assay: LCK; conditions: Table 10, Formula A-I; 1 μM ATP; read-out: LCK (IC50)
[2] = biological target: T1, JAK3 (Homo sapiens, UniProt P52333); assay: Inhibition of a panel of kinases, in vitro HotSpot kinase assay: JAK3; conditions: Table 10, Formula A-I; 1 μM ATP; read-out: JAK3 (IC50)
T1 sequence (P52333 1-1124): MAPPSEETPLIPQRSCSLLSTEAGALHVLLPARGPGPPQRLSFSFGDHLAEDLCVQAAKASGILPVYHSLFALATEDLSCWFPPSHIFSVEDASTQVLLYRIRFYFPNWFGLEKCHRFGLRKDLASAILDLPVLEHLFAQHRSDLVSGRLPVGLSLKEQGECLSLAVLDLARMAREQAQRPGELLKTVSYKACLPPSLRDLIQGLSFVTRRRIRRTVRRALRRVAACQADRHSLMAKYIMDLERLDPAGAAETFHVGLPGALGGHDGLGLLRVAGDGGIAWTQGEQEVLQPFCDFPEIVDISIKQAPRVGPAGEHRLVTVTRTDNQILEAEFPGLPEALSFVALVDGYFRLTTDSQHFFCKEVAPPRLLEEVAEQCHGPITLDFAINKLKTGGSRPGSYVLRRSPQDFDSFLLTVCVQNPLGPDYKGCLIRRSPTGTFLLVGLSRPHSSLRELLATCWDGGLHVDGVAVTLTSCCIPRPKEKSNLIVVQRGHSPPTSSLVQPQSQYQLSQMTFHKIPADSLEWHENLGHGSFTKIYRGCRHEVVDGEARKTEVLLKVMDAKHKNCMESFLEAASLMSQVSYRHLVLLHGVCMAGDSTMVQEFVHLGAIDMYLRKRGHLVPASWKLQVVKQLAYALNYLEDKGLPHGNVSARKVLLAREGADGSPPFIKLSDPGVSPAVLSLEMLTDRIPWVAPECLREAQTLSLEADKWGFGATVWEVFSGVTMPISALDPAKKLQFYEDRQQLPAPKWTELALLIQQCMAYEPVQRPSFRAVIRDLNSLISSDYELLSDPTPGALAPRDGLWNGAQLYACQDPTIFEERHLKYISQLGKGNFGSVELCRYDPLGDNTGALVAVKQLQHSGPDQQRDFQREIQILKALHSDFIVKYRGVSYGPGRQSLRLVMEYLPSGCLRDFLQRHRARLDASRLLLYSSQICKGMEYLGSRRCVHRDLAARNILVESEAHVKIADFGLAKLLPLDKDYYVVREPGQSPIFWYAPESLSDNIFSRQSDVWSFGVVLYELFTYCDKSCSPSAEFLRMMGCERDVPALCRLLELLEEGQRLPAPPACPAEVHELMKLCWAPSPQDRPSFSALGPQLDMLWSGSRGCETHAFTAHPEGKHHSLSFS

[3] = biological target: T2, BTK-WT (Homo sapiens, UniProt Q06187); assay: Btk in vitro inhibitory activity (one of Method A TR-FRET, Method B electrophoretic mobility shift, Method C radiometric filter binding); conditions: Table 10, Formula A-I; read-out: BTK-WT (IC50)
T2 construct: purified from insect cells as a full-length construct containing an N-terminal 6X-His tag; His6 (N); made in house; host or cells: insect cells (baculovirus Sf21 in Method B)
T2 sequence (Q06187 whole entry): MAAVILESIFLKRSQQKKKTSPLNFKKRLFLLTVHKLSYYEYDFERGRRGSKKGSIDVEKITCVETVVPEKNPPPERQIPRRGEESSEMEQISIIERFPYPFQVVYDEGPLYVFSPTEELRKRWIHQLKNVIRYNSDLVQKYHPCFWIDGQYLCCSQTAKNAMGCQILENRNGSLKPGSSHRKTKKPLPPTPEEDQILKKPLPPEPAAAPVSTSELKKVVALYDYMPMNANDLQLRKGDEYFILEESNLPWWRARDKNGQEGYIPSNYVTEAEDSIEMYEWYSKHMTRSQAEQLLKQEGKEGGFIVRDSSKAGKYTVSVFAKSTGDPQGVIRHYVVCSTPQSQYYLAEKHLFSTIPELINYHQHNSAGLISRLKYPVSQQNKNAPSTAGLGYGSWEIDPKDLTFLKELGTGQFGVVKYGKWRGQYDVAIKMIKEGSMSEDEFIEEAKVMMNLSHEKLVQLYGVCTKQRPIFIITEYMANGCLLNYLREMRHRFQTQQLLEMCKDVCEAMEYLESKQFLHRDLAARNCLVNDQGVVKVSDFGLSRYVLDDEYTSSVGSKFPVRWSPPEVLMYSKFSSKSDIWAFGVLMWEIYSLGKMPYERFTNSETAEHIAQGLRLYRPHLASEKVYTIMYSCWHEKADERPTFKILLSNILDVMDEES

Sequence of LCK (P06239 whole entry): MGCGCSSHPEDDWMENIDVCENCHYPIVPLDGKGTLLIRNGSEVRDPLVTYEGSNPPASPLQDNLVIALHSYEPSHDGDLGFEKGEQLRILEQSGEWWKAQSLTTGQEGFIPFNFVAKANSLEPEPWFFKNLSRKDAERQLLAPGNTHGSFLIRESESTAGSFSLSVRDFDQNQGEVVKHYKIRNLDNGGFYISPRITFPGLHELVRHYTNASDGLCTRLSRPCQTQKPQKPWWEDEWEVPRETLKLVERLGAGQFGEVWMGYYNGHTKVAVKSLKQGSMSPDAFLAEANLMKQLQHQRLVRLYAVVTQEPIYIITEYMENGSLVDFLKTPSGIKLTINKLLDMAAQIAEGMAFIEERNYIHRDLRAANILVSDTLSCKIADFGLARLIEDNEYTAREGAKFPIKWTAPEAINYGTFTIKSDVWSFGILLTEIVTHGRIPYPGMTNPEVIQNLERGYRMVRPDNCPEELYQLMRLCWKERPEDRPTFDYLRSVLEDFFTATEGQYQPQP

| IC50 [1] | IC50 [2] | IC50 [3] | Compound |
| --- | --- | --- | --- |
| < 100 nM | 100 to 1000 nM | ≤ 100 nM | NC(=O)c1ncc(N2CCC[C@@H](NC(=O)Nc3ccccc3)C2)nc1Nc1ccc(C2CCN(C3CCCC3)CC2)cc1 [Example A-2, 3-{[4-(1-cyclopentylpiperidin-4-yl)phenyl]amino}-5-[(3R)-3-[(phenylcarbamoyl)amino]piperidin-1-yl]pyrazine-2-carboxamide hydrochloride] |
| < 100 nM | 100 to 1000 nM | ≤ 100 nM | Cc1cccc(NC(=O)N[C@@H]2CCCN(c3cnc(C(N)=O)c(Nc4ccc(C5CCN(C6CCCC6)CC5)cc4)n3)C2)c1 [Example A-4, 3-{[4-(1-cyclopentylpiperidin-4-yl)phenyl]amino}-5-[(3R)-3-{[(3-methylphenyl)carbamoyl]amino}piperidin-1-yl]pyrazine-2-carboxamide hydrochloride] |
| 100 to 1000 nM | 100 to 1000 nM | ≤ 100 nM | NC(=O)c1ncc(N2CCC[C@@H](NC(=O)N3Cc4ccccc4C3)C2)nc1Nc1ccc(C2CCN(C3CCCC3)CC2)cc1 [Example A-5, N-[(3R)-1-(5-carbamoyl-6-{[4-(1-cyclopentylpiperidin-4-yl)phenyl]amino}pyrazin-2-yl)piperidin-3-yl]-2,3-dihydro-1H-isoindole-2-carboxamide hydrochloride] |
| 100 to 1000 nM | 100 to 1000 nM | ≤ 100 nM | CN(C(=O)N[C@@H]1CCCN(c2cnc(C(N)=O)c(Nc3ccc(C4CCN(C5CCCC5)CC4)cc3)n2)C1)c1ccccc1 [Example A-6, 3-{[4-(1-cyclopentylpiperidin-4-yl)phenyl]amino}-5-[(3R)-3-{[methyl(phenyl)carbamoyl]amino}piperidin-1-yl]pyrazine-2-carboxamide] |
| 100 to 1000 nM | 100 to 1000 nM | ≤ 100 nM | CN(C)c1ccc(C(=O)N[C@@H]2CCCN(c3cnc(C(N)=O)c(Nc4ccc(C5CCN(C6CCCC6)CC5)cc4)n3)C2)cc1 [Example A-7, 3-{[4-(1-cyclopentylpiperidin-4-yl)phenyl]amino}-5-[(3R)-3-[4-(dimethylamino)benzamido]piperidin-1-yl]pyrazine-2-carboxamide hydrochloride] |
| 100 to 1000 nM | 1000 to 10000 nM | ≤ 100 nM | Cc1cccc(NC(=O)N[C@@H]2CCCN(c3cnc(C(N)=O)c(Nc4cc(C)ns4)n3)C2)c1 [Example A-10, 3-[(3-methyl-1,2-thiazol-5-yl)amino]-5-[(3R)-3-{[(3-methylphenyl)carbamoyl]amino}piperidin-1-yl]pyrazine-2-carboxamide] |
| 100 to 1000 nM | 1000 to 10000 nM | ≤ 100 nM | Cc1cc(Nc2nc(N3CCC[C@@H](NC(=O)Nc4cccnc4)C3)cnc2C(N)=O)sn1 [Example A-11] |
| 1000 to 10000 nM | 1000 to 10000 nM | 100 to 1000 nM | Cc1cc(Nc2nc(N3CCC[C@@H](NC(=O)Nc4ncc(C)s4)C3)cnc2C(N)=O)sn1 [Example A-12] |
| 100 to 1000 nM |  | ≤ 100 nM | CS(=O)(=O)c1ccc(Nc2nc(N3CCC[C@@H](NC(=O)Nc4ccccc4)C3)cnc2C(N)=O)cc1 [Example A-42, 3-[(4-methanesulfonylphenyl)amino]-5-[(3R)-3-[(phenylcarbamoyl)amino]piperidin-1-yl]pyrazine-2-carboxamide] |
| 100 to 1000 nM |  | ≤ 100 nM | CS(=O)(=O)c1ccc(Nc2nc(N3CCC[C@@H](NC(=O)Nc4cccnc4)C3)cnc2C(N)=O)cc1 [Example A-43, 3-[(4-methanesulfonylphenyl)amino]-5-[(3R)-3-{[(pyridin-3-yl)carbamoyl]amino}piperidin-1-yl]pyrazine-2-carboxamide] |
| > 10000 nM |  | 100 to 1000 nM | CC(C)c1ccc(Nc2nc(N3CCC(C(N)=O)CC3)nnc2C(N)=O)cc1 [Example A-91, 3-(4-carbamoylpiperidin-1-yl)-5-(4-isopropylphenylamino)-1,2,4-triazine-6-carboxamide] |
